Biological target: human TLR8 (Homo sapiens (Human), UniProt Q9NR97)
Assay: HEK-Blue-hTLR8 cells assay and selectivity index
Assay type: cell-based
Details: EC50(TLR8) value/EC50(TLR7) value

Sequence of human TLR8 (Q9NR97 27-1041): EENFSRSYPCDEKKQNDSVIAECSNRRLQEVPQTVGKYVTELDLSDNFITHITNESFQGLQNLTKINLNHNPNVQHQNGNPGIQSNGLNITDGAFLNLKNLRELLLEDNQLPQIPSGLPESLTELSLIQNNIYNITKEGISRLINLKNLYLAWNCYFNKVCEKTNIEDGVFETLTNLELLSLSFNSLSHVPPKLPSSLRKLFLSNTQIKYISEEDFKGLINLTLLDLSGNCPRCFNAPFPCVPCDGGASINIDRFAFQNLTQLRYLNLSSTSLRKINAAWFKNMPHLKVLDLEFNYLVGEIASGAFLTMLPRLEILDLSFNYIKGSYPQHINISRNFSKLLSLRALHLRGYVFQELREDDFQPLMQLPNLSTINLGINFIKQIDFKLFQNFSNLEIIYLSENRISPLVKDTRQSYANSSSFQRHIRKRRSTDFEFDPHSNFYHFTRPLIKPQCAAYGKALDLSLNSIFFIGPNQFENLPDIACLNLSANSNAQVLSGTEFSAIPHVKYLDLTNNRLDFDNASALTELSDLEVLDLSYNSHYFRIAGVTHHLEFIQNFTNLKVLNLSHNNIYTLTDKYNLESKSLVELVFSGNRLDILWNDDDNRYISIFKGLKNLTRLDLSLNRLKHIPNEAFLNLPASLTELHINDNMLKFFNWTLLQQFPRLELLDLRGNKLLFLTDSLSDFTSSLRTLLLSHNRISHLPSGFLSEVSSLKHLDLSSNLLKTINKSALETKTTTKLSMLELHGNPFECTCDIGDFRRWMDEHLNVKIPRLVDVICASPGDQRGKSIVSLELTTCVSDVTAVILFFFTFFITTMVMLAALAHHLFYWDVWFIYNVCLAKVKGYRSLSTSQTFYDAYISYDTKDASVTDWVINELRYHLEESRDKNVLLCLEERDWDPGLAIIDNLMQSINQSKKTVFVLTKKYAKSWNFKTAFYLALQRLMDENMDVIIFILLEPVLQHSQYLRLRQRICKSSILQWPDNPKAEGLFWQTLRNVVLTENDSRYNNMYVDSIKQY

SMILES: CCS(=N)(=O)c1nc(N)c2[nH]c(=O)n(Cc3ccc(Cl)cc3)c2n1 (single isomer, unassigned) [Example 70-A, 6-Amino-9-[(4-chlorophenyl)methyl]-2-(ethylsulfonimidoyl)-7H-purin-8-one]
- Selective index: >18518

From patent US9708325B2, “Sulfonimidoylpurinone compounds and derivatives for the treatment and prophylaxis of virus infection” (Hoffmann-La Roche Inc., priority 2015, dated 2017)
